# Test results: patent US20100022495A1, “MODULATING ENDOPLASMIC RETICULUM STRESS IN THE TREATMENT OF TUBEROUS SCLEROSIS” (PRESIDENT AND FELLOWS OF HARVARD COLLEGE, priority 2005, published 2010)
# What was measured:
# [1] = test system: TSC1−/− MEFs; assay: ER stress parameters (western blot, XBP-1 rt-PCR) in TSC1-deficient MEFs; type: cell-based, mouse; conditions: for splicing of XBP-1 mRNA (UPR activation): thapsigargin 0.05 nM, tunicamycin 0.002 ug/ml, compared with controls
# Method: (§1) All of the mouse embryonic fibroblast (MEF) cell lines (TSC1+/+, TSC1−/−, TSC2+/+, TSC2−/−) were cultured in medium containing DMEM-H+10% fetal bovine serum (FBS)+1% PS (penicillin-streptomycin complex) in 175 cm^2 cell culture flasks using standard methods. Upon reaching 90% confluency, cells were split into 10 cm dishes at 30-40% confluency and grown again in DMEM-H+10% FBS+1% PS to about 60% confluency for experiments.
# […] As a vehicle control, DMSO was not present at a sufficiently high concentration to act as a chemical chaperone. […] At the end of the incubation, the media was removed and dishes were immediately frozen in liquid nitrogen and stored at −80° C. untile further use.
# (§2) Protein extracts were prepared with a lysis buffer containing 25 mM Tris-HCl (pH 7.4), 2 mM Na3VO4, 10 mM NaF, 10 mM Na4P2O7, 1 mM EGTA, 1 mM EDTA, 1% NP-40, 5 ug/ml leupeptin, 5 ug/ml aprotinin, 10 nM okadaic acid, and 1 mM phenylmethylsulfonyl fluoride (PMSF). Immunoprecipitations and immunoblotting experiments were performed with 200 and 75 μg total protein, respectively without any freeze-thaw cycles from individual aliquots.
# (§3) Protein concentrations were normalized and the desired amounts were aliquotted into tubes. Laemelli buffer was added to a 1× final concentration and the samples were boiled for five minutes. After boiling, the samples were incubated at room temperature for 20 minutes. The boiled, cooled lysates were centrifuged at 14,000 rpm and subject to SDS-PAGE. Proteins were transferred to PVDF membranes for western blotting.
# (§4) Membrane blotting was performed using standard techniques and reagents. Appropriate modification depending on the antibodies used and other considerations, is within the ability of those skilled in the art. Membranes were blocked in 10% blocking reagent for 1 hour prior to exposure to primary antibody in tris-buffered saline-tween (TBST), pH 7.4, overnight at 4° C. Following overnight incubation, membranes were washed in TBST for 3×20 minutes and placed into secondary antibody for 1 hour. Subsequently the membrane was washed 3×20 minutes in TBST. After the washing period, the membranes were developed by using a chemiluminescence kit and the bands were visualized using a phospho imager system (VersaDoc Imaging System, Model 3000).
# (§5) Phosphorylation state of the ER stress markers PERK and s6K1 were analyzed in both wild type (TSC2+/+ and TSC1+/+) and TSC-deficient (TSC2−/− and TSC1−/−) MEFs. Cells were cultured and treated with DMSO (vehicle control) or rapamycin as discussed above. Rapamycin inhibits signaling through the mTOR pathway which is required for ER stress response. The DMSO was present at too low of a concentration to act as a chemical chaperone. Cells were harvested and protein and RNA were isolated. Protein samples were resolved by SDS-PAGE and proteins were transferred to PVDF membrane for western blotting as described above. RNA was subjected to rt-PCR using probes designed to mouse XBP-1 to detect splicing.
# (§6) Phosphorylation state of the ER stress markers PERK, eIF2α cJun, JNK and s6K1, and the level of spliced XBP-1 were analyzed in both wild type and TSC-deficient MEFs. Cells were treated with PBS (vehicle control) or PBA (chemical chaperone) as discussed above. Cells were harvested, samples were resolved by SDS-PAGE, proteins were transferred to PVDF membrane, and western blots were performed as described above.
# [2] = test system: TSC2−/− MEFs; assay: ER stress parameters (western blot, XBP-1 rt-PCR) in TSC2-deficient MEFs; type: cell-based, mouse; conditions: for splicing of XBP-1 mRNA (UPR activation): thapsigargin 0.05 nM, tunicamycin 0.002 ug/ml, compared with controls
# Method: as §1
# At the start of the experiment, cells were placed in fresh media and treated with 200 nM Rapamycin or 10 mM […], and DMSO or PBS as respective vehicle controls (PBA was dissolved in PBS, and rapamycin was dissolved in DMSO), for 19 hours. As a vehicle control, DMSO was not present at a sufficiently high concentration to act as a chemical chaperone. Cells were then washed 3 times with serum-free DMEM-H+1% PS and incubated for 5 hours in serum free DMEM-H+1% PS in the presence of rapamycin or PBA and their appropriate vehicle controls. At the end of the incubation, the media was removed and dishes were immediately frozen in liquid nitrogen and stored at −80° C. untile further use.
# as §2, §3, §4, §5, §6
# [3] = test system: IRS-1; assay: IRS-1 degradation and ubiquitination during ER stress induced by thapsigargin or tunicamycin; type: cell-based; conditions: for degradation of IRS-1: prolonged exposure to ER stress
# Description: (§7) It has been previously shown that when ER stress is induced acutely, IRS-1 is highly phosphorylated at serine 307 residue, and insulin induced tyrosine phosphorylation is blocked. […] Eight hour stimulation with thapsigargin in the presence of MG132 leads to ubiquitination of IRS-1. […] As mentioned above, IRS-1 degradation was increased in both TSC1- and TSC2-deficient cells. […] IRS-1 protein levels became totally undetectable in an hour after cycloheximide addition, whereas pretreatment with PBA extends this period up to 4 hours.
# [4] = test system: wild type control cells; assay: UPR activation by low doses of ER stress inducers in wild type control cells; type: cell-based, mouse; conditions: thapsigargin 0.05 nM, tunicamycin 0.002 ug/ml
# Method: as §1
# TSC-deficient cells and their corresponding control cells were exposed to extremely low doses of thapsigargin (0.05 nM) and tunicamycin (0.002 ug/ml) at which the UPR is not activated in wild type control cells. TSC1- and TSC2-deficient cells responded to the ER stress inducers by activating the UPR as determined by increased splicing of XBP-1 mRNA when compared with their controls.
# [5] = test system: TSC1−/− cells; assay: Apoptosis (Cell Death Elisa, caspase 3 or PARP cleavage) in TSC1−/− cells; type: cell-based, mouse
# Method: (§8) ER stress can cause apoptosis. […] Wild-type and TSC1−/− cells were plated in 96 well plates in DMEM-H+10% FBS+1% PS at 40-50% confluence. Upon reaching about 80% confluence, the cells were washed with DMEM-H without FBS and treated with the ER stress inducer thapsigargin (10 nM) or DMSO (vehicle control) for 6 hours in serum-free DMEM-H+1% PS. Apoptosis was analyzed by using Cell Death Elisa Kit using the manufacturer's instructions, or by detection of caspase 3 or PARP cleavage.
# [6] = test system: TSC2−/− cells; assay: Apoptosis (Cell Death Elisa, caspase 3 or PARP cleavage) in TSC2−/− cells; type: cell-based, mouse
# [7] = test system: Wild-type control cells; assay: Apoptosis in wild-type control cells; type: cell-based, mouse; conditions: thapsigargin, same time period (6 hours)
# Method: as §8
# [8] = test system: kidney adenomas and liver hemangiomas of TSC-2+/− mice; type: in vivo; conditions: thapsigargin 1 mg/kg
# Method: To address this, we have used around ˜1 year old TSC-2+/−mice for thapsigargin (1 mg/kg) or vehicle treatment. After 7 days of thapsigargin administration we have analyzed the apoptosis with tunnel assay in the kidney adenomas. […] Increased tunnel positivity in liver hemangiomas after thapsigargin treatment was also observed, but lack of liver hemangiomas in vehicle treated group, limits the conclusions that can be drawn from the study.
# [9] = test system: ER stress; conditions: western blot after treatment of the animal with the compound; cited from earlier work
# [10] = test system: c-Jun Amino Terminal Kinase-1 (JNK-1); assay: c-Jun Amino Terminal Kinase (JNK) kinase assay on immunoprecipitates from TSC2-deficient cells; type: cell-based, mouse; conditions: PBA 10 mM
# Method: Cell lysates were prepared as above, and subsequently incubated with primary antibody and Sepharose beads, either Protein A Sepharose or Protein G Sepharose depending on the antibody. The samples were incubated on a rotating apparatus overnight at 4° C. Subsequently, beads were centrifuged at 14,000 rpm and washed 3 times with cold lysis buffer. If immunoprecipitates were to be subjected to SDS-PAGE, they were boiled in 2× Laemmli buffer for 5 minutes prior to loading.
# Following immunoprecipitation the beads were washed 3 times with lysis buffer as described above, and two times with JNK kinase assay buffer (25 mM HEPES (pH: 7.4), 20 mM MgCl2, 20 mM β-glycerophosphate, 0.5 mM EGTA, 0.5 mM NaF, 0.5 mM NaOrthoVanadate, 1 mM PMSF) for equilibration. After washing with kinase buffer, the beads were incubated in 17 μl kinase buffer, 1 μl [^32P]γ-ATP and 4 μg of c-Jun fusion protein at 30° C. for 20 minutes. The reaction was terminated by the addition of Laemmli buffer. The samples were resolved by SDS-page and transferred to a PVDF membrane as described above. Phosphorylated c-Jun bands were visualized prior to western blotting.
# Phosphorylation state of the ER stress markers PERK, eIF2α cJun, JNK and s6K1, and the level of spliced XBP-1 were analyzed in both wild type and TSC-deficient MEFs. Cells were treated with PBS (vehicle control) or PBA (chemical chaperone) as discussed above. […]
# [11] = test system: TSC-1−/− cells; assay: Insulin signaling (IRS-1, IRS-2, Akt western blot) in TSC-1−/− cells; type: cell-based, mouse; conditions: PBA treatment
# Method: (§9) For insulin signaling experiments, cells were treated exactly the same way as for analysis of ER stress parameters. At the end of a 5-hour starvation period, cells were either stimulated with PBS or with 100 nM insulin for 5 minutes for analysis of ISR phosphorylation analysis, or 15 minutes for Akt phosphorylation analysis. Samples were harvested and subjected to western blotting as described above. Blots were probed with primary antibodies targeted to total and phosphorylated insulin receptor substrate (IRS)-1, and -2, and Akt, a downstream target in the insulin signaling pathway.
# [12] = test system: TSC-2−/− cells; assay: Insulin signaling (IRS-1, IRS-2, Akt western blot) in TSC-2−/− cells; type: cell-based, mouse; conditions: PBA treatment
# Method: as §9
# [13] = test system: IRS-1; assay: Degradation pattern of IRS-1 after cycloheximide addition in TSC-1 deficient cells; type: cell-based, mouse; conditions: pretreatment with PBA (an hour without PBA)
# Description: as §7
# [14] = 8 hours in the presence of 26S proteosome inhibitor epoxomicin
# [15] = TSC1-deficient MEFs, western blot, rapamycin 200 nM, 12 hours, PBA 10 mM
# [16] = TSC2-deficient MEFs, western blot, rapamycin 200 nM, 12 hours, PBA 10 mM
compound,measurement,setting,value
C/C=C(/C)C(=O)O[C@H]1C(C)=C2[C@H]([C@@H]1OC(=O)CCCCCCC)[C@@](C)(OC(C)=O)C[C@H](OC(=O)CCC)[C@@]1(O)[C@H]2OC(=O)[C@@]1(C)O [thapsigargin],splicing of XBP-1 mRNA (UPR activation),[1]; TSC1-deficient cells,increased
same,splicing of XBP-1 mRNA (UPR activation),[2]; TSC2-deficient cells,increased
same,ubiquitination of IRS-1,[3]; [14],severe ubiquitination
same,ubiquitination of IRS-1,[3]; eight hour stimulation in the presence of MG132,ubiquitination
same,degradation of IRS-1,[3],degradation of IRS-1
same,UPR activation,[4],not activated
same,cleaved caspase-3 or PARP cleavage,"[5]; TSC1−/− cells after thapsigargin treatment, compared with controls",significantly induced
same,apoptosis,"[5]; TSC1−/− cells, thapsigargin 10 nM, after 6 hours",massive apoptosis
same,apoptosis,"[6]; TSC2−/− cells, thapsigargin, after 6 hours",massive apoptosis
same,PARP and caspase-3 cleavage,"[6]; TSC-2−/− cells, induction of ER stress",increased
same,apoptosis,[7],no apoptosis
same,tunnel positivity in liver hemangiomas,[8]; no liver hemangiomas in vehicle treated group,Increased
same,tunnel assay positive cells in kidney adenomas,"[8]; ~1 year old TSC-2+/− mice, after 7 days",clear up-regulation
C[C@@H]1C[C@@H]([C@H](O)CC2CC(=O)NC(=O)C2)C(=O)[C@@H](C)C1 [Cyclohexamide],PERK phosphorylation,[1]; [15],decrease
same,PERK phosphorylation,[2]; [16],decrease
"C[C@H](CCC(=O)NCCS(=O)(=O)O)[C@H]1CC[C@H]2[C@@H]3[C@@H](O)C[C@@H]4C[C@H](O)CC[C@]4(C)[C@H]3CC[C@]12C [TUDCA, tauroursodeoxycholic acid]","ER stress in animals (phosphorylation of PERK, activation of JNK, phosphorylation of IRE-1α)",[9],regulate ER stress
tunicamycin,splicing of XBP-1 mRNA (UPR activation),[1]; TSC1-deficient cells,increased
same,splicing of XBP-1 mRNA (UPR activation),[2]; TSC2-deficient cells,increased
same,ubiquitination of IRS-1,[3]; [14],severe ubiquitination
same,degradation of IRS-1,[3],degradation of IRS-1
same,UPR activation,[4],not activated
"O=C(O)CCCc1ccccc1 [PBA, 4-phenyl butyric acid]",PERK phosphorylation,[1]; [15],block
same,S6 phosphorylation,[1]; [15],significant decrease
same,s6K1 phosphorylation,[1]; [15],significant decrease
same,eIF2α phosphorylation,"[1]; TSC1-deficient cells, PBA 10 mM",substantial decrease
same,XBP-1 mRNA splicing after glucose starvation,[1]; TSC-1 deficient cells glucose starved in the presence of 4-PBA,significantly reduced
same,glucose starvation induced CHOP transcription,"[1]; TSC-1 deficient cells, 4-PBA treatment",significantly reduced
same,PERK phosphorylation,[2]; [16],blocked
same,S6 phosphorylation,[2]; [16],significant decrease
same,eIF2α phosphorylation,"[2]; TSC2-deficient cells, PBA 10 mM",blocked
same,XBP-1 mRNA splicing after glucose starvation,[2]; TSC-2 deficient cells glucose starved in the presence of 4-PBA,significantly reduced
same,c-Jun Amino Terminal Kinase-1 (JNK-1) activity,[10],suppressed
same,insulin induced IRS-1 tyrosine phosphorylation,[11]; 100 nM insulin 5 minutes,improved
same,insulin induced IRS-2 tyrosine phosphorylation,[11]; 100 nM insulin 5 minutes,improved
same,insulin induced Akt phosphorylation,[11]; 100 nM insulin 15 minutes,improved
same,protein levels of IRS-1,[11],increase
same,insulin induced IRS-1 tyrosine phosphorylation,[12]; 100 nM insulin 5 minutes,improved
same,insulin induced IRS-2 tyrosine phosphorylation,[12]; 100 nM insulin 5 minutes,improved
same,insulin induced Akt phosphorylation,[12]; 100 nM insulin 15 minutes,improved
same,protein levels of IRS-1,[12],increase
same,period until IRS-1 protein levels become undetectable after cycloheximide addition,[13],up to 4 hours
same,Glucose starvation induced PARP and caspase-3 cleavage,"[5]; TSC-1−/− cells, 4-PBA treatment",blocked
same,rescue from ER stress inducer sensitivity,"[6]; TSC2-deficient cells, treatment with chemical chaperone",at least partially rescued
same,Glucose starvation induced PARP and caspase-3 cleavage,"[6]; TSC-2−/− cells, 4-PBA treatment",blocked
same,"ER stress in animals (phosphorylation of PERK, activation of JNK, phosphorylation of IRE-1α)",[9],regulate ER stress
